Results published in patent US20260317344A1, “EGFR INHIBITORS FOR TREATING DISEASE” (BLOSSOMHILL THERAPEUTICS, INC., priority 2023, published 2026).

How the values were obtained:
[1] = system: BaF3 cells with engineered EGFR L858R/T790M/C797S; experiment: 3-Day CellTiter Glo (CTG) cell proliferation assay, BaF3 EGFR L858R/T790M/C797S; type: cell-based; conditions: Mus musculus, 3-day CTG proliferation, 72 hours
Description: (§1) 3-DAY CellTiter Glo (CTG) Cell Proliferation Assays (BaF3 Cell Lines)
(§2) Cell proliferation assays were carried out in BaF3 cells engineered with EGFR mutations. BaF3 cells with engineered EGFR L858R/T790M/C797S, EGFR L858R/C797S, or EGFR d746-750/T790M transgene, one thousand cells/50 μL per well were seeded in white 384-well plate, followed by treatment with indicated compounds in a 9-dose dilution series using TECAN d300e liquid dispenser. Cells were incubated with compounds for 72 hours at 37° C. and 5% CO2. Cell proliferation was measured using CellTiter-Gbo 2.0 luciferase-based ATP detection assay (Promega, Madison, WI) at 18 μL per well following the manufacturer's protocol. Plates were then read on a TECAN Sparks multimode microplate reader. Data was analyzed using GraphPad Prism 9 (GraphiPad Software, San Diego, CA) to obtain IC50 values.

[2] = system: HCC827 cells; experiment: 5-Day CellTiter Glo (CTG) cell proliferation assay, HCC827; type: cell-based; conditions: Homo sapiens; HCC827 cells (d746-750 EGFR), 5-day CTG proliferation, 120 hours; read-out: HCC827 IC50
Summary of the method: (§3)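 Luminescent ATP signal (CellTiter-Glo 2.0) after 120 hours of compound exposure gave IC50 values. PC-9 and HCC827 harbour EGFR d746-750; NCI-H1975 harbours L858R/T790M.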

[3] = system: NCI-H1975 cells; experiment: 5-Day CellTiter Glo (CTG) cell proliferation assay, NCI-H1975; type: cell-based; conditions: Homo sapiens; NCI-H1975 cells (L858R/T790M EGFR), 5-day CTG proliferation, 120 hours; read-out: H1975 IC50
Summary of the method: as §3

[4] = system: BaF3 cells with engineered EGFR L858R/C797S; experiment: 3-Day CellTiter Glo (CTG) cell proliferation assay, BaF3 EGFR L858R/C797S; type: cell-based; conditions: Mus musculus, 3-day CTG proliferation, 72 hours
Description: as §1, §2

[5] = system: BaF3 cells with engineered EGFR d746-750/T790M; experiment: 3-Day CellTiter Glo (CTG) cell proliferation assay, BaF3 EGFR d746-750/T790M; type: cell-based; conditions: Mus musculus; BaF3 EGFR d746-750/T790M cells, 3-day CTG proliferation, 72 hours
Description: as §1, §2

[6] = system: PC-9 cells; experiment: 5-Day CellTiter Glo (CTG) cell proliferation assay, PC-9; type: cell-based; conditions: Homo sapiens; PC-9 cells (d746-750 EGFR), 5-day CTG proliferation, 120 hours; read-out: PC-9 IC50
Summary of the method: as §3

[7] = molecular target: EGFR (D770_N771insNPG) (Homo sapiens, UniProt P00533, INS770NPG); experiment: HotSpot radiometric kinase assay, inhibition of EGFR (D770_N771insNPG) mutant; type: biochemical; conditions: 33P ATP, room temperature, 120 m
Description: (§4) Biochemical Assays for inhibition of wild-type and mutant EGFRs
(§5) Briefly, specific kinase/substrate pairs along with required cofactors were prepared in reaction buffer; 20 mM HEPES pH 7.5, 10 mM […], 1 mM EGTA, 0.02% Brij35, 0.02 mg/ml BSA, 0.1 mM Na3VO4, 2 mM DTT, 1% DMSO. Compounds were delivered into the reaction, followed ~20 minutes later by addition of a mixture of ATP (Sigma, St. Louis MO) and ^33P ATP (Perkin Elmer, Waltham MA) to a final concentration of […]. Reactions were carried out at room temperature for 120 m, followed by spotting of the reactions onto P81 ion exchange filter paper (Whatman Inc., Piscataway, NJ). Unbound phosphate was removed by extensive washing of filters in 0.75% phosphoric acid. […] IC50 values and curve fits were obtained using Prism (GraphPad Software).

[8] = molecular target: T1, pEGFR, NCI-H1975 cells (L858R/T790M EGFR) (Homo sapiens, UniProt P00533, L858R/T790M); experiment: Cellular EGFR phosphorylation assay (LANCE Ultra TR-FRET) in NCI-H1975 cells; type: cell-based; conditions: 4 hours at 37° C., read-out: H1975 pEGFR IC50
T1 construct: pEGFR (Tyr1068) TR-FRET
Description: (§6) Cellular EGFR Phosphorylation Assays
(§7) EGFR phosphorylation assays were conducted in NSCLC cells with EGFR activation mutations. PC-9 cells (purchased from Aldrich-Sigma) carry a Glu746-Ala750 deletion (d746-750) mutation in exon 19 of the EGFR gene and NCI-H1975 cells (purchased from ATCC) carry both L858R activation mutation and T790M gatekeeper mutation in the EGFR gene. A431 cells (purchased from ATCC) with amplification of wildtype EGFR, derived from epidermoid carcinoma, were used to measure the activity against wildtype EGFR. All cells were seeded in 96-well plates. For PC-9 and NCI-H1975 cells, 50 thousand cells were seeded per well. For A431 cells, 30 thousand cells were seeded per well. The next day, cells were exposed to compound for 4 hours at 37° C. and 5% CO2. Compounds were diluted in DMSO and added to cells in a 9-dose, 3-fold dilution, titration curve using TECAN d300e liquid dispenser. For A431 cells, 40 ng/mL of EGF was added to the media for the final 10 minutes of incubation. EGFR phosphorylation was measured using phospho-EGFR (Try1068) LANCE Ultra TR-FRET Detection Kit (TRF4015M) from PerkinElmer according to manufacturer's instructions. In brief, cells were lysed with 40 μL of lysis buffer plus 1× Halt protease and phosphatase inhibitor cocktail (Thermo 78441) and by incubation at room temperature for 1 h on a microplate shaker (350 rpm). 15 μ L of cell lysate was transferred to 384-well white plate and 5 μL of Europium- and ULight-labeled antibodies diluted in 1× detection buffer was added to each well. After 4-6 hours of incubation at room temperature, plates were then read on a TECAN Sparks multimode microplate reader. Data was analyzed using GraphPad Prism 9 (GraphPad Software, San Diego, CA) to obtain IC50 values.

[9] = molecular target: EGFR (D746-750) (Homo sapiens, UniProt P00533, DEL746-750); experiment: HotSpot radiometric kinase assay, inhibition of EGFR 746-750 mutant; type: biochemical; conditions: 33P ATP, room temperature, 120 m
Description: as §4, §5

[10] = molecular target: T2, pEGFR, A431 cells (wildtype EGFR) (Homo sapiens, UniProt P00533); experiment: Cellular EGFR phosphorylation assay (LANCE Ultra TR-FRET) in A431 cells; type: cell-based; conditions: 4 hours at 37° C., 40 ng/mL EGF for the final 10 minutes, read-out: A431 pEGFR IC50
T2 construct: pEGFR (Tyr1068) TR-FRET
Description: as §6, §7

[11] = molecular target: EGFR (D746-750/C797S) (Homo sapiens, UniProt P00533, C797S/DEL746-750); experiment: HotSpot radiometric kinase assay, inhibition of EGFR 746-750/C797S mutant; type: biochemical; conditions: 33P ATP, room temperature, 120 m
Description: as §4, §5

[12] = molecular target: EGFR (L858R/T790M/C797S) (Homo sapiens, UniProt P00533, C797S/L858R/T790M); experiment: HotSpot radiometric kinase assay, inhibition of EGFR L858R/T790M/C797S mutant; type: biochemical; conditions: 33P ATP, room temperature, 120 m
Description: as §4, §5

[13] = molecular target: T3, pEGFR, PC-9 cells (d746-750 EGFR) (Homo sapiens, UniProt P00533, DEL746-750); experiment: Cellular EGFR phosphorylation assay (LANCE Ultra TR-FRET) in PC-9 cells; type: cell-based; conditions: 4 hours at 37° C., read-out: PC-9 pEGFR IC50
T3 construct: pEGFR (Tyr1068) TR-FRET
Description: as §6, §7

T1 sequence (P00533 25-1210 T790M/L858R): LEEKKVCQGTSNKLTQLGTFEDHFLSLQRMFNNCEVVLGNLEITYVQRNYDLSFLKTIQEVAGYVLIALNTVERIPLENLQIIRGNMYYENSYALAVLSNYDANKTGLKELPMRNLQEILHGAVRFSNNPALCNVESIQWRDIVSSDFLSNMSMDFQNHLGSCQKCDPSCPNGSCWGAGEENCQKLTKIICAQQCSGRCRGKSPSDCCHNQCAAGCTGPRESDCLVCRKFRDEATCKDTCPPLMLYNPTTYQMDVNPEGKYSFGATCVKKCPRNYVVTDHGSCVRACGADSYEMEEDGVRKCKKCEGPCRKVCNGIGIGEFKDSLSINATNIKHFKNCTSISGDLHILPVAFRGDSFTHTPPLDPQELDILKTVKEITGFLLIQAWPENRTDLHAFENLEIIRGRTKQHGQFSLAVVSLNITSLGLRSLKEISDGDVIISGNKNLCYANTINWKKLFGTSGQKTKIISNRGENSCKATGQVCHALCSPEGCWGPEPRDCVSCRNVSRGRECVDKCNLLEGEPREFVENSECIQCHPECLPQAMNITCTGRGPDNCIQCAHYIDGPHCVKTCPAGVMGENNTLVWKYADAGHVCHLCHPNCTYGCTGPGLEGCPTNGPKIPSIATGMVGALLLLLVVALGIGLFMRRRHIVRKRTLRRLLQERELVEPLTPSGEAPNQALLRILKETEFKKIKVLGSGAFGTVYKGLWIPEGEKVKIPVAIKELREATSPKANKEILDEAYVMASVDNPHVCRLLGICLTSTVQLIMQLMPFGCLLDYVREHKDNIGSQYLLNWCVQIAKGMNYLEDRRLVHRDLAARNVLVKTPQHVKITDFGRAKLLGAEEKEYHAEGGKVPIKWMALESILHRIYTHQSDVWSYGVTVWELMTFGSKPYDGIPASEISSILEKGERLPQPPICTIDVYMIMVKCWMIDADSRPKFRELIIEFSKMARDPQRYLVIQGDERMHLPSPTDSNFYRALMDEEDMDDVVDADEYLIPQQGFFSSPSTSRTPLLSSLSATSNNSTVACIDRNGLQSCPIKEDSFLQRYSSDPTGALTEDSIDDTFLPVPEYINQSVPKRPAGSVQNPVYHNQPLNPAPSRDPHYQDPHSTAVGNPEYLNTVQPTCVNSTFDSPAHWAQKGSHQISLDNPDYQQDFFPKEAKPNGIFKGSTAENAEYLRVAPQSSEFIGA
EGFR (D770_N771insNPG), sequence (P00533 with tags, fused parts or gaps INS770NPG limits assumed): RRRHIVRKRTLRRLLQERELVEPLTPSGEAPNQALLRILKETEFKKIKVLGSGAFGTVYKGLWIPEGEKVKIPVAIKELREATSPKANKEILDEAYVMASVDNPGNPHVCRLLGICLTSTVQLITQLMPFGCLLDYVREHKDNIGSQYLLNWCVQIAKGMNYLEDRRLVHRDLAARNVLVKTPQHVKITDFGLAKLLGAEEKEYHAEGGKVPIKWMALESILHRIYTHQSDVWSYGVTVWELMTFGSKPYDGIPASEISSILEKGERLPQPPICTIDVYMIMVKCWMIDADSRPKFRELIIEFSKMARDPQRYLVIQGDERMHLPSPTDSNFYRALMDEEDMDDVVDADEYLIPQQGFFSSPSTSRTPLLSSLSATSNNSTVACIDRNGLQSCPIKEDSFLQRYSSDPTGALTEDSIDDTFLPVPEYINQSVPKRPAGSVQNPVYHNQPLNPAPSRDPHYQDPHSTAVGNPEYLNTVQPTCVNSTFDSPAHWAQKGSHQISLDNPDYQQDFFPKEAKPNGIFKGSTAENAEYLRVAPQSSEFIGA
EGFR (D746-750/C797S), sequence (P00533 with tags, fused parts or gaps DEL746-750/C797S): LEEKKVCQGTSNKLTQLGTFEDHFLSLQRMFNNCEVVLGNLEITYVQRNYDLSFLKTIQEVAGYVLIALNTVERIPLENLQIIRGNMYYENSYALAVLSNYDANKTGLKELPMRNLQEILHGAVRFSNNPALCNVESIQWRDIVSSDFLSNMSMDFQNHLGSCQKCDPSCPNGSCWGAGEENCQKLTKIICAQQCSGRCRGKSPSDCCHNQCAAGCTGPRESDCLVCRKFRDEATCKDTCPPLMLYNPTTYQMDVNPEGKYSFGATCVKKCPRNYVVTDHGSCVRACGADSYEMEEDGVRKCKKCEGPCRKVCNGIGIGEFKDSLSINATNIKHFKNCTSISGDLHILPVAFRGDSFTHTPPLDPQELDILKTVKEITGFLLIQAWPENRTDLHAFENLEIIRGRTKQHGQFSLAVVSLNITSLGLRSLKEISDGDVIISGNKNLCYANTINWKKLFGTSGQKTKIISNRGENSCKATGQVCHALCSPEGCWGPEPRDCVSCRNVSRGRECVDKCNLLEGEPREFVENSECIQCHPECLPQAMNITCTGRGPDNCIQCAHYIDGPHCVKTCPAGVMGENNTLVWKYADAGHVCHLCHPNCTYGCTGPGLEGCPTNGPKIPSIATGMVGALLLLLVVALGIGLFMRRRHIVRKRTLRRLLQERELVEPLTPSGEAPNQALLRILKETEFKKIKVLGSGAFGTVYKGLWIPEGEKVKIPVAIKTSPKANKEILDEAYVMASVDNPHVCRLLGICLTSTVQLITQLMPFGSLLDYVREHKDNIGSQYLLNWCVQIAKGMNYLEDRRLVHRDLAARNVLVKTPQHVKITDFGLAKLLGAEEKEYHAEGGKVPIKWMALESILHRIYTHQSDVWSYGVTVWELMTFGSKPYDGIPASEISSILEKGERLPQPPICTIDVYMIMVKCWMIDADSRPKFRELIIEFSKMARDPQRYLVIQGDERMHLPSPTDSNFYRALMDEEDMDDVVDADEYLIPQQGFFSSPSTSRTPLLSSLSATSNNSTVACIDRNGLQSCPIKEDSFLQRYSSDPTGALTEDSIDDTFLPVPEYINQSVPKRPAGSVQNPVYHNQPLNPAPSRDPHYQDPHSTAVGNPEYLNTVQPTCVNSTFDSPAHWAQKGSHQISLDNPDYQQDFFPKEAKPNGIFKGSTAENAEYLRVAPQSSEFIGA
T2 sequence (P00533 25-1210): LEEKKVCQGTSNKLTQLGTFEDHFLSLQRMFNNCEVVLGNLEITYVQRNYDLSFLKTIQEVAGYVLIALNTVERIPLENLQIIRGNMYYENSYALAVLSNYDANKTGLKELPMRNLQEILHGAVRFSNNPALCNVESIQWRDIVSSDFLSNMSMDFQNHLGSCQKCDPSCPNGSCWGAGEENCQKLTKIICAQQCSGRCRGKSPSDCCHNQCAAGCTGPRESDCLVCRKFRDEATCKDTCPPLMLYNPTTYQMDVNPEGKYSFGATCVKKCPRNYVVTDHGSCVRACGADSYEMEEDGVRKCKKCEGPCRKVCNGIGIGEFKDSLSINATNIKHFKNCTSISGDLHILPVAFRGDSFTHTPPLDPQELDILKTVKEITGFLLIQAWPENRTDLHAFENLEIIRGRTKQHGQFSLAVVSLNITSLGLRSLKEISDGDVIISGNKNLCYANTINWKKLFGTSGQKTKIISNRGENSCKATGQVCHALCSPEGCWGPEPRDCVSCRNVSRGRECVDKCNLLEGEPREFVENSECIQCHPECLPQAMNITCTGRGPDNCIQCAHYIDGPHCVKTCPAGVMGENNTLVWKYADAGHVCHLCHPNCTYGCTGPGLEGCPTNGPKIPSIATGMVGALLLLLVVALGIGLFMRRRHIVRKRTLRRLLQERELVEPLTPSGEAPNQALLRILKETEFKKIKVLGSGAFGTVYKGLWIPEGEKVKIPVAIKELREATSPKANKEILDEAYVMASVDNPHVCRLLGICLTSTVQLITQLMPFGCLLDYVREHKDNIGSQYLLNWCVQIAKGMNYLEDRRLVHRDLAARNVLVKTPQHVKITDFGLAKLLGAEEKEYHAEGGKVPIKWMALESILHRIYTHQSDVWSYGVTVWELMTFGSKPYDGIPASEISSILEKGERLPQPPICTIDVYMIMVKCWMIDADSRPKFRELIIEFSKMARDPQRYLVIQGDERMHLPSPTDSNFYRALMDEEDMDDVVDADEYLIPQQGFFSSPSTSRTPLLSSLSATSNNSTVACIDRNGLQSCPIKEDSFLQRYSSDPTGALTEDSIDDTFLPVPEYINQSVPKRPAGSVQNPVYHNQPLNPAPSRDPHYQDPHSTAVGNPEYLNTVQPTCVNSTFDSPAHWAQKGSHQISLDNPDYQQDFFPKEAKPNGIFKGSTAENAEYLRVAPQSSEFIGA

SMILES | IC50 [1] | IC50 [2] | IC50 [3] | IC50 [4] | IC50 [5] | IC50 [6] | IC50 [7] | IC50 [8] | IC50 [9] | IC50 [10] | IC50 [11] | IC50 [12] | IC50 [13]
CCN(C)c1nn([C@@H](C)CO)c2c1/C=C/c1n[nH]c3c(C)nc(cc13)-c1c(C)nn(C)c1O[C@@H](C)CN(C)C2 [Ex. 102, (2S)-2-[(10S,17E)-16-[ethyl(methyl)amino]-6,8,10,12,20-pentamethyl-2,8,10,11,12,13-hexahydro-14H-5,3-(azenometheno)tripyrazolo[3,4-f:3′,4′-j:4″,3″-n][1,4]oxazacyclopentadecin-14-yl]propan-1-ol] | 12.2 nM | 25.3 nM | 57 nM | 3.16 nM | 204 nM | 52.8 nM | – | – | – | – | – | – | –
CCOc1nn([C@@H](C)CO)c2c1/C=C/c1n[nH]c3cnc(cc13)-c1c(C)nn(C)c1OC[C@H]1CCCN1C2 [Ex. 65, (2S)-2-[(8aR,19E)-1-ethoxy-11,13-dimethyl-7,8,8a,9,11,17-hexahydro-6H-14,16-(azenometheno)tripyrazolo[3,4-f:3′,4′-j:4″,3″-n]pyrrolo[2,1-c][1,4]oxazacyclopentadecin-3(4H)-yl]propan-1-ol] | – | 0.63 nM | 5.36 nM | – | – | 1.6 nM | 0.99 nM | 1.56 nM | 0.61 nM | 15.8 nM | 1.61 nM | 1.58 nM | 1.11 nM
CCc1nn([C@@H](C)CO)c2c1/C=C/c1n[nH]c3cnc(cc13)-c1c(C)nn(C)c1O[C@@H](C)CN(C)C2 [Ex. 61, (2S)-2-[(10S,17E)-16-ethyl-6,8,10,12-tetramethyl-2,8,10,11,12,13-hexahydro-14H-5,3-(azenometheno)tripyrazolo[3,4-f:3′,4′-j:4″,3″-n][1,4]oxazacyclopentadecin-14-yl]propan-1-ol] | – | 0.66 nM | 74.7 nM | – | – | 3.55 nM | 0.7 nM | 2.05 nM | 0.43 nM | 21 nM | 1.05 nM | 0.91 nM | 1.68 nM
CCOc1nn(CCO)c2c1/C=C/c1n[nH]c3cnc(cc13)-c1c(c(C)nn1C)OCCN(C)C2 [Ex. 69, 2-[(17E)-16-ethoxy-6,8,12-trimethyl-2,6,10,11,12,13-hexahydro-14H-5,3-(azenometheno)tripyrazolo[3,4-f:3′,4′-j:3″,4″-n][1,4]oxazacyclopentadecin-14-yl]ethan-1-ol] | – | 41.9 nM | 308 nM | – | – | 92 nM | 15.3 nM | 262 nM | 1.87 nM | 160 nM | 3.68 nM | 1.93 nM | 75.4 nM
CCOc1nn([C@@H](C)CO)c2c1/C=C/c1n[nH]c3cnc(cc13)-c1c(C)nn(C)c1O[C@@H](C)CN(C(C)=O)C2 [Ex. 112, 1-[(10S,17E)-16-ethoxy-14-[(2S)-1-hydroxypropan-2-yl]-6,8,10-trimethyl-2,8,10,11,13,14-hexahydro-12H-5,3-(azenometheno)tripyrazolo[3,4-f:3′,4′-j:4″,3″-n][1,4]oxazacyclopentadecin-12-yl]ethan-1-one] | 97.7 nM | – | – | 29.5 nM | 396 nM | – | – | – | – | – | – | – | –

Continued by falling IC50 [2], values first:

IC50 [1] | IC50 [2] | IC50 [3] | IC50 [4] | IC50 [5] | IC50 [6] | IC50 [7] | IC50 [8] | IC50 [9] | IC50 [10] | IC50 [11] | IC50 [12] | IC50 [13] | SMILES
25.9 nM | 11.6 nM | 358 nM | 3.72 nM | – | 226 nM | 2.23 nM | 41.6 nM | 0.27 nM | 119 nM | 0.78 nM | 0.29 nM | 65.1 nM | Cc1nn(C)c2c1-c1cc3c(n[nH]c3cn1)/C=C/c1c(OCC#N)nn(CCO)c1CN(C)[C@@H](C)CO2 [Ex. 31]
2.81 nM | 6.03 nM | 74.9 nM | 2.6 nM | – | 115 nM | 3.07 nM | 17.7 nM | 0.59 nM | 442 nM | 1.44 nM | 1.36 nM | 789 nM | CC(C)Oc1nn(CCO)c2c1/C=C/c1n[nH]c3cnc(cc13)-c1cnn(C)c1OC[C@H](C)N(C(C)C)C2 [Ex. 4, 2-[(11S,17E)-8,11-dimethyl-12-(propan-2-yl)-16-[(propan-2-yl)oxy]-2,8,10,11,12,13-hexahydro-14H-5,3-(azenometheno)tripyrazolo[3,4-f:3′,4′-j:4″,3″-n][1,4]oxazacyclopentadecin-14-yl]ethan-1-ol]
– | 2.7 nM | 9.62 nM | – | – | 13.8 nM | 0.39 nM | 3.31 nM | 0.36 nM | 57.3 nM | 1.09 nM | 0.6 nM | 2.38 nM | Cc1nn(C)c2c1-c1cc3c(n[nH]c3c(C)n1)/C=C/c1c(OCC#N)nn(CCO)c1CN(C)C[C@H](C)O2 [Ex. 63, {[(10S,17E)-14-(2-hydroxyethyl)-6,8,10,12,20-pentamethyl-2,10,11,12,13,14-hexahydro-8H-5,3-(azenometheno)tripyrazolo[3,4-f:3,4′-j:4″,3″-n][1,4]oxazacyclopentadecin-16-yl]oxy}acetonitrile]
– | 1.13 nM | 17.6 nM | – | – | 1.81 nM | 0.69 nM | 5.54 nM | 0.56 nM | 16 nM | 1.65 nM | 1.08 nM | 2.98 nM | CCN1Cc2c(c(OCC#N)nn2[C@@H](C)CO)/C=C/c2n[nH]c3cnc(cc23)-c2c(C)nn(C)c2O[C@@H](C)C1 [Ex. 67, {[(10S,17E)-12-ethyl-14-[(2S)-1-hydroxypropan-2-yl]-6,8,10-trimethyl-2,10,11,12,13,14-hexahydro-8H-5,3-(azenometheno)tripyrazolo[3,4-f:3′,4′-j:4″,3″-n][1,4]oxazacyclopentadecin-16-yl]oxy}acetonitrile]
